Results published in US20210255193A1, “LYSINE REACTIVE PROBES AND USES THEREOF” (The Scripps Research Institute, priority 2017, published 2021).

Key:
Test in all cases: competitive isoTOP-ABPP
Format in all cases: binding
[1] = biological target: T1, IFIT3 Interferon-induced protein with tetratricopeptide (Homo sapiens, UniProt O14879)
T1 construct: isoTOP-ABPP experiments performed in cell lysates (in vitro); endogenous in cells; host or cells: MDA-MB-231 soluble lysate
T1 sequence (O14879 1-490): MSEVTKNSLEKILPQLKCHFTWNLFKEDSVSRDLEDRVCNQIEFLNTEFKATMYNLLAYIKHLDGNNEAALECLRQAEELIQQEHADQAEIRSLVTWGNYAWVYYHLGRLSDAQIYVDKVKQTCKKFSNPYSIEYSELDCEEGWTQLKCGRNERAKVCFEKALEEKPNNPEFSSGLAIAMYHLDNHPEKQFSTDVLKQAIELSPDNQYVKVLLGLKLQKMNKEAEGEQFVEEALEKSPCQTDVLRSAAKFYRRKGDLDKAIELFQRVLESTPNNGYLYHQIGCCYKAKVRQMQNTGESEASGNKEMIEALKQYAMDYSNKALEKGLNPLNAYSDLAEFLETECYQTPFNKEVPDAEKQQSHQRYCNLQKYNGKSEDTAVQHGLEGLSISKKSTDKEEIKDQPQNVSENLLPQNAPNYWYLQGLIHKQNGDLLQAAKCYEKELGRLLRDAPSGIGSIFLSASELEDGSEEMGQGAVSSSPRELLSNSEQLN
How it was run: (§1)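 Here, isoTOP-ABPP measures loss of STP-alkyne labeling at individual lysines after fragment exposure in lysate. Activated esters are dosed at 50 μM, guanidinylating agents at 100 μM; the probe follows at 0.1 mM for 1 h. R ≥4 marks a liganded lysine.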

DTYMK Thymidylate kinase = biological target: T2, DTYMK Thymidylate kinase (Homo sapiens, UniProt P23919); conditions: for isoTOP-ABPP reactivity ratio at lysine P23919_K118 / isoTOP-ABPP ratio (R) at liganded lysine P23919_K118: 50 uM, in vitro; for isoTOP-ABPP reactivity ratio at lysine P23919_K118: 231 sol; for isoTOP-ABPP ratio (R) at liganded lysine P23919_K118: sol, 231
T2 construct: isoTOP-ABPP experiments performed in cell lysates (in vitro); endogenous in cells; host or cells: soluble proteome of human cancer cell lines (MDA-MB-231; Ramos and Jurkat also prepared)
T2 sequence (P23919 1-212): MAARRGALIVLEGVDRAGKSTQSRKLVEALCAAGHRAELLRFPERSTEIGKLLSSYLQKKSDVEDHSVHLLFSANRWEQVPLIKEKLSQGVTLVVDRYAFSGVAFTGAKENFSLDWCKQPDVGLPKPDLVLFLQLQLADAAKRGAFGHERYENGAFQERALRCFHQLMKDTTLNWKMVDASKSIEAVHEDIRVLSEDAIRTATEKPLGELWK
How it was run: as §1

[2] = biological target: T3, IMPDH1 Inosine-5-monophosphate dehydrogenase 1 (Homo sapiens, UniProt P20839); conditions: for isoTOP-ABPP reactivity ratio at lysine P20839_K208 / isoTOP-ABPP ratio (R) at liganded lysine P20839_K208: 50 uM, in vitro; for isoTOP-ABPP reactivity ratio at lysine P20839_K208: 231 sol; for isoTOP-ABPP ratio (R) at liganded lysine P20839_K208: sol, 231
T3 construct: isoTOP-ABPP experiments performed in cell lysates (in vitro); endogenous in cells; host or cells: soluble proteome of human cancer cell lines (MDA-MB-231; Ramos and Jurkat also prepared)
T3 sequence (P20839 whole entry): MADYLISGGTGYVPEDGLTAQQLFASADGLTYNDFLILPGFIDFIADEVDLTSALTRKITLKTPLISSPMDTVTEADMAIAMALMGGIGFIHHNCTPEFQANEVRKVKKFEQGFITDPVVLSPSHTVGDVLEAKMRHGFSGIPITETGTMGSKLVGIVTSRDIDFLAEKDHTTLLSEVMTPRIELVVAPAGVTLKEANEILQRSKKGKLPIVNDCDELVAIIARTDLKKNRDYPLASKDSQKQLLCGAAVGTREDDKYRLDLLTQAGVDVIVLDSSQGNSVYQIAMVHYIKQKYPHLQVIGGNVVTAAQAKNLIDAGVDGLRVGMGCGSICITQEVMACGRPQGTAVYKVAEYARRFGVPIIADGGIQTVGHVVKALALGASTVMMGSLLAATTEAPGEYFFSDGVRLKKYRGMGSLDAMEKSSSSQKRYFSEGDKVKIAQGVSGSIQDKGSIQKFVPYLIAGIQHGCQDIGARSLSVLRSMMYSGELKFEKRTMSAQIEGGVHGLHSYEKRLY
How it was run: as §1

[3] = biological target: T4, ETFA Electron transfer flavoprotein subunit alpha, mitochondrial (Homo sapiens, UniProt P13804); conditions: for isoTOP-ABPP reactivity ratio at lysine P13804_K139 / isoTOP-ABPP ratio (R) at liganded lysine P13804_K139: 50 uM, in vitro; for isoTOP-ABPP reactivity ratio at lysine P13804_K139: 231 sol; for isoTOP-ABPP ratio (R) at liganded lysine P13804_K139: sol, 231
T4 construct: isoTOP-ABPP experiments performed in cell lysates (in vitro); endogenous in cells; host or cells: soluble proteome of human cancer cell lines (MDA-MB-231; Ramos and Jurkat also prepared)
T4 sequence (P13804 20-333): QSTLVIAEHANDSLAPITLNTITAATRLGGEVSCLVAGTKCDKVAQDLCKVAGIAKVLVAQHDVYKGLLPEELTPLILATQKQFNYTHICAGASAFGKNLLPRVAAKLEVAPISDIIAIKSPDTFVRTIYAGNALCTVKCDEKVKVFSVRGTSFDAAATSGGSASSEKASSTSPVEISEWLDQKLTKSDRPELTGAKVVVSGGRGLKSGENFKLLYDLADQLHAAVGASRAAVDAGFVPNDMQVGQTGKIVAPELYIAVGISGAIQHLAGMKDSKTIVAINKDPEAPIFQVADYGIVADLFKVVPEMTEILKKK
T4 sequence (P38117 2-255 partner limits assumed): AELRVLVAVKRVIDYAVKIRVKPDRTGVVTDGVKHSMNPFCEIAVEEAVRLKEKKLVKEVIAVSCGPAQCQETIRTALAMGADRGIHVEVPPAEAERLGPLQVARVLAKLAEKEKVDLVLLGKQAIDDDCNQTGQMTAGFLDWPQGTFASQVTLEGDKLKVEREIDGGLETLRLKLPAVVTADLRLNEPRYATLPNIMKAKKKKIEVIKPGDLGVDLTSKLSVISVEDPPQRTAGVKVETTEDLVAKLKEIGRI
How it was run: as §1

Row | SMILES | isoTOP-ABPP reactivity ratio at lysine P23919_K118 (DTYMK Thymidylate kinase) | isoTOP-ABPP reactivity ratio at lysine P20839_K208 [2] | isoTOP-ABPP reactivity ratio at lysine P13804_K139 [3] | isoTOP-ABPP ratio (R) at liganded lysine P23919_K118 (DTYMK Thymidylate kinase) | isoTOP-ABPP ratio (R) at liganded lysine P20839_K208 [2] | isoTOP-ABPP ratio (R) at liganded lysine P13804_K139 [3] | further results
1 | O=C(CCc1cn(-c2ccccc2)nc1-c1ccccc1)Oc1ccc([N+](=O)[O-])cc1[N+](=O)[O-] [fragment 29, 2,4-Dinitrophenyl 3-(1,3-diphenyl-1H-pyrazol-4-yl)propanoate] | 1.1 | 1.3 | 0.8 | – | – | – | isoTOP-ABPP reactivity ratio at lysine O14879_K148 ([1]; 50 uM, 231 sol, in vitro): 4.1
2 | COc1cc(CCC(=O)Oc2ccc([N+](=O)[O-])cc2[N+](=O)[O-])cc(OC)c1OC [fragment 33, 2,4-Dinitrophenyl 3-(3,4,5-trimethoxyphenyl)propanoate] | 6.6 | 1.2 | 0.7 | – | – | – | –
3 | O=C(Oc1ccc([N+](=O)[O-])cc1[N+](=O)[O-])c1ccc(-c2ccccc2)cc1 [fragment 37, 2,4-Dinitrophenyl [1,1′-biphenyl]-4-carboxylate] | – | – | – | 0.9 | 1.4 | 0.9 | –
4 | CC(C)(C)OC(=O)NCCCC(=O)Oc1ccc([N+](=O)[O-])cc1[N+](=O)[O-] [fragment 41, 2,4-Dinitrophenyl 4-((tert-butoxycarbonyl)amino)butanoate] | – | – | – | 0.8 | 1.2 | 20.0 | –
5 | O=C(Oc1c(F)c(F)c(C(F)(F)F)c(F)c1F)c1cc(C(F)(F)F)cc(C(F)(F)F)c1 [fragment 47, 2,3,5,6-Tetrafluoro-4-(trifluoromethyl)phenyl 3,5-bis(trifluoromethyl)benzoate] | – | – | – | – | – | – | isoTOP-ABPP ratio, lysine P23919_K118 (DTYMK Thymidylate kinase; 50 uM_231_sol_in vitro): 0.9; isoTOP-ABPP ratio, lysine P20839_K208 ([2]; 50 uM_231_sol_in vitro): 1.2; isoTOP-ABPP ratio, lysine P13804_K139 ([3]; 50 uM_231_sol_in vitro): 1.1
6 | CC(C)(C)OC(=O)N=C(NC(=O)OC(C)(C)C)n1cccn1 [fragment 50, reference compound] | – | – | – | – | – | – | isoTOP-ABPP ratio, lysine O14879_K148 ([1]; 100 uM_231_sol_in vitro): 1.4; isoTOP-ABPP ratio, lysine P20839_K208 ([2]; 100 uM_231_sol_in vitro): 20.0; isoTOP-ABPP ratio, lysine P13804_K139 ([3]; 100 uM_231_sol_in vitro): 1.1
